{
  "source": "paper PMC4745082",
  "about": "“A Novel PET Imaging Probe for the Detection and Monitoring of Translocator Protein 18 kDa Expression in Pathological Disorders” (Scientific Reports, 2016)",
  "key": {"TSPO [1]": {"molecular_target": "T1, TSPO (Rattus norvegicus, UniProt P16257)", "T1 sequence (P16257 whole entry)": "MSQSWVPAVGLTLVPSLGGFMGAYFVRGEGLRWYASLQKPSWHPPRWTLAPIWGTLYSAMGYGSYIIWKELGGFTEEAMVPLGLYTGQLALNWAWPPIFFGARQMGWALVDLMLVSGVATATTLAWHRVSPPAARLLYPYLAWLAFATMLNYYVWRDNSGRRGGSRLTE", "details": "ratio of Ki values, higher affinity of CB251"}, "TSPO [2]": {"molecular_target": "T1, TSPO", "assay": "biochemical"}, "CBR": {"molecular_target": "CBR", "assay": "In vitro CBR binding, displacement of [3H]flunitrazepam", "design": "species or system rat", "details": "for Ki: displacement of [3H]flunitrazepam from rat cerebrocortical samples, mean of three experiments in duplicate", "experimental": "Binding affinity and selectivity to the 18-kDa translocator protein TSPO and to CBR were assessed using in vitro receptor binding assays. These experiments were carried out as described by Denora et al[34]."}, "TSPO [3]": {"molecular_target": "TSPO", "design": "method as in PMID 19948230", "details": "literature value ref 25; cited from earlier work"}},
  "data": [
    {"smiles": "CCCN(CCC)C(=O)Cc1c(-c2ccc(OCCF)cc2)nc2c(Cl)cc(Cl)cn12", "note": "[CB251, 2-(2-(4-(2-Fluoroethoxy)phenyl)-6,8-dichloroimidazo[1,2-a]pyridin-3-yl)-N,N-dipropylacetamide]", "values": [
      {"measurement": "TSPO binding affinity relative to PK 11195", "setting": "TSPO [1]", "value": 5, "unit": "times"},
      {"measurement": "TSPO binding affinity relative to PBR28", "setting": "TSPO [1]; PBR28 Ki from ref 25", "value": 22, "unit": "times"},
      {"measurement": "Ki", "setting": "TSPO [2]", "value": "0.27 ± 0.09", "unit": "nM"},
      {"measurement": "Ki", "setting": "CBR", "value": "> 100000", "unit": "nM"},
      {"measurement": "binding to CBR", "setting": "CBR; result in words", "value": "below the detection limit"}
    ]},
    {"smiles": "CN1C(=O)CN=C(c2ccccc2F)c2cc([N+](=O)[O-])ccc21", "note": "[flunitrazepam, reference compound]", "values": [
      {"measurement": "Ki", "setting": "CBR", "value": "5.11 ± 0.87", "unit": "nM"}
    ]},
    {"smiles": "CCC(C)N(C)C(=O)c1cc2ccccc2c(-c2ccccc2Cl)n1", "note": "(centres unmarked) [PK 11195, reference compound]", "values": [
      {"measurement": "Ki", "setting": "CBR", "value": "> 100000", "unit": "nM"}
    ]},
    {"smiles": "COc1ccccc1CN(C(C)=O)c1cnccc1Oc1ccccc1", "note": "[PBR28]", "values": [
      {"measurement": "Ki", "setting": "TSPO [3]", "value": "6.1 ± 6.4", "unit": "nM"}
    ]}
  ]
}
